The text below walks through data of patent US7220729B2, “Huntington's Disease Treatment” (Academia Sinica, priority 2004, dated 2007).

The test system of experiment [1] is R6/2 mice. The experiment in a line: Motor coordination by rotarod performance. The format is in vivo, mouse. The settings on record: treatment from 7 weeks of age, vs vehicle. From the text:
The motor coordination of each mouse was also examined by rotarod performance using standard techniques. […] It is known that the motor coordination of an R6/2 mouse starts to deteriorate at the age of 4 weeks, which is 3 weeks prior to the time of the CGS 21680 treatment. It is expected that CGS 21680 administration prior to 4 week of age might improve the motor coordination of an R6/2 mouse.

For another experiment, the system named is adenylyl cyclase. The experiment in a line: Adenylyl cyclase activity assay on striatal membrane fractions. The format is biochemical, mouse. The conditions noted are these: striatal membranes of R6/2 mice compared with wild type mice.
For another experiment, the system named is AMPK. Briefly: Western blot of AMPK protein and Thr172 phosphorylation in striatal cytosolic fraction of treated R6/2 mice. The format is in vivo, mouse. The conditions noted are these: striatum of R6/2 mice, 5 μg/g i.p. once a day up to 3.5 weeks. On the procedure:
Male R6/2 mice and wild type littermates were obtained from Jackson Laboratories (Bar Harbor, Me., USA) and were mated with female control mice (B6CBAFI/J). Each offspring was genotyped by PCR using genomic DNA extracted from the tail to ensure that the number of CAG repeats remained approximately 150. Primers used were [NT] ID NO:1) and [NT] ID NO:2). All animal experiments were performed under protocols approved by the Academia Sinica Institutional Animal Care and Utilization Conunittee, Taiwan. […] Then, the striatal cytosolic fraction was collected from each mouse and subjected to Western blot analysis using the standard techniques as described in Rutter et al., Biochem. J. 2003;375:1-16. More specifically, membrane fractions were combined with a 2× sample buffer containing 125 mM Tris-HCl (pH 6.8), 20% glycerol, 1% SDS, 15% 2-mercaptoethanol, 200 mM dithiothreitol, and 0.01% bromphenol blue; boiled for 5 minutes; centrifuged to remove the insoluble material; and then separated on 8% separating gels. […] The phosphorylation of AMPK at Thr172 was quantified by densitometry of the anti-AMPK-P immunoreactive bands using ImageQuant v.3.15 (Molecular Dynamics).

Experiment [2] concerns R6/2 mice. Briefly: Striatal atrophy / lateral ventricle enlargement on coronal brain sections. The format is in vivo, mouse. The settings on record: R6/2 mice at 12 weeks old; vehicle 1.63±0.14, p<0.001, n=5. On the procedure: Striatal atrophy is one of the major characteristics of HD. In R6/2 mice, marked progressive atrophy of the striatum was found at the age of 3 to 13 weeks (Ferrante et al., J. Neurosci. 2000;20:4389–4397). Thus, the above-described CGS 21680-treated and vehicle-treated R6/2 mice were examined for striatal atrophy.
Each of the mice was anesthetized using sodium pentobarbital (100 μg/g), and intracardially perfused with 4% paraformaldehyde in 0.1 M phosphate buffer (PB, pH 7.4). The brain was carefully removed, post-fixed with 4% paraformaldehyde/0.1 M PB for 2–5 hours, and immersed in 30% glycerol in 0.1 M PB. Then, it was cut at 20 μm on a freezing microtome (CM3050, Leica Microsystems Nussloch, Nussloch, Germany). Serial-cut coronal tissue sections from the rostral segment of the neostriatum to the level of the anterior commissure (interaural 5.34 mm/bregma 1.54 mm to interaural 3.7 mm/bregma −0.1 mm) were used to define atrophy of the striatum and enlargement of the lateral ventricles. Total areas of the striatum or the lateral ventricles were measured using the software NIH Image 1.62. Nissl-stained sections were quantified by counting the corresponding types of cells in defined areas of photomicrographs taken using a phase contrast microscope.

Experiment [3] concerns NGF, CNTF, GDNF, BDNF, bFGF. Briefly: Quantitative real-time RT-PCR of striatal neurotrophic factors. The format is in vivo, mouse. The settings on record: R6/2 mice, mRNA normalized to GAPDH, vs vehicle. As for the experimental part: Total RNA was purified from each of the above-described administrated mice and their littermates, and was treated with RNase-free DNase I (RQI, Promega, Madison, Wis., USA) following the manufacturer's protocol to remove genomic DNA. cDNA synthesis and quantitative real-time RT-PCR were performed using the […] One-Step RT-PCR kit (Clontech, Palo Alto, Calif., USA) containing SYBR Green I (BioWhittaker Molecular Applications; BMA, Rockland, Me., USA). More specifically, the first-strand cDNA was synthesized at 50° C. for 60 minutes and denatured at 95° C. for 10 minutes. PCR reactions were then carried out in the same tubes using the following conditions for 40 cycles: 95° C. for 30 seconds, 60° C. for 30 seconds, and 68° C. for 60 seconds.
Independent RT-PCRs were performed using the same RNAs for each neurotrophic factor gene (target gene) and glyceraldehyde-3-phosphate dehydrogenase (GAPDH, reference gene). Real-time fluorescence monitoring and melting curve analysis were performed using Rotor-Gene 3000 (Corbett Research, Sydney, Australia). […] Data were analyzed by the Rotor-Gene 3000 operating software version 4.6.94 (Corbett Research) to determine the threshold cycle (CT) above the background for each reaction. The relative transcript amount of each target gene, calculated using standard curves of serial RNA dilutions, was normalized to that of GAPDH amplified from the same RNA.
Background: Real-time PCR tracks product formation cycle by cycle.

In experiment [4] the test system is R6/2 mice. Briefly: Locomotor activity (beam breaks in activity monitor) of R6/2 mice. The format is in vivo, mouse. The settings on record: week 2 after administration, 5 μg/g i.p. daily, vs vehicle, statistically significant (Student's t-test). As for the experimental part: Twenty-four hours after each administration, the locomotor activity of each mouse was measured for 10 minutes according to the method described in Lee et al., Chin. J. Physiol. 1992;35:317–336. Briefly, each mouse was placed in an activity monitor (Coulbourn Instruments, Allentown, Pa., USA) equipped with 16×16 horizontal sensors, which were used to monitor the mouse's floor position. The locomotor activity was measured by the total number of beam breaks in an X-Y plane recorded every 10 minutes.

Experiment [5] deals with R6/2 mice. The experiment in a line: Blood glucose level in R6/2 mice. The conditions noted are these: chronic treatment, untreated R6/2 higher than wild type by approximately 1-fold. It counts as in vivo, mouse. On the procedure: Hyperglycemia has been found in HD patients and R6/2 mice. […] The above-described R6/2 mice and wild type littermates were decapitated and blood samples (1 to 1.5 ml) were collected from each mouse using standard techniques. Blood glucose levels were measured using ABBOTT Alcyon 300i (ABBOTT Labs, USA).

Method for adenylyl cyclase: Briefly, striatal tissues were isolated from the mice and sonicated in a lysis buffer (0.4 mM EDTA, 1 mM EGTA, 25 mM Tris-HCl, 250 mM sucrose, 0.1 mM leupeptin, and 40 μM PMSF, pH 7.4) using a W-380 sonicator (Ultrasonics, Farmingdale, N.Y., USA) at a setting of 20% output power for a total of 45 seconds. The resultant homogenate was centrifuged at 50,000×g for 30 minutes and the P1 membrane fractions and the soluble fractions were collected. The adenylyl cyclase activity assay was performed at 37° C. for 10 minutes in a 400-μl reaction mixture containing 1 mM ATP, 100 mM NaCl, 50 mM Hepes, 0.2 mM EGTA, 100 μM rolipram, 6 mM MgCl2, 1 μM GTP, and 20 μg of membrane protein. The reactions were stopped by adding 0.6 ml of 10% TCA. The cAMP formed was isolated by Dowex chromatography (Sigma, St. Louis, Mo., USA) and was assayed to the method described in Chern et al. The enzymatic reaction was in a linear range for up to 30 minutes with up to 40 μg of membrane proteins.

Take `CCNC(=O)[C@H]1O[C@@H](n2cnc3c(N)nc(NCCc4ccc(CCC(=O)O)cc4)nc32)[C@H](O)[C@@H]1O` [CGS21680]: the “motor coordination (rotarod performance)” value in the experiment with R6/2 mice [1] is recorded as “No difference was found”. For the same compound, in the experiment with adenylyl cyclase, the “adenylyl cyclase activities induced by the compound, R6/2 vs wild type mice” value is reported as “much higher level than those in the wild type mice”. The “reduction of AMPK phosphorylation level (Thr172)” value in the experiment with AMPK (vs vehicle) is given as “about 35%”. Also, the AMPK protein level entry in the experiment on AMPK (compared with vehicle R6/2 and wild type) is “about the same AMPK protein level”. In addition, the “size of ventricular enlargement” value in the experiment with R6/2 mice [2] is 0.91±0.14 mm^2. The “striatum expression level of trophic factors” value in experiment [3] is recorded as “did not change”. Besides, in the experiment with R6/2 mice [4], the locomotor activity result is reported as “did not exhibit such deterioration, but showed improvement in the locomotor activity”. Also, the blood glucose level result in the experiment on R6/2 mice [5] was “reduced the aberrantly elevated blood glucose level in R6/2 mice to a level comparable to that in the wild type mice”.
